Laboratory results reported in patent publication US20030144360A1, “Composition and method for modulating BAR/FXR receptor activity” (Allergan Sales, Inc., priority 2001, published 2003).
Where “and” joins values, the source holds several entries; their conditions need not be identical. Identical values can stand only once.

Key:
GAL-L-hRXRa = target: T1, GAL-L-hRXRa (Homo sapiens, UniProt P19793); experiment: Co-transfection luciferase assay, MH100 × 4 reporter, GAL-L-hRXRa alone
T1 sequence (P19793 203-462): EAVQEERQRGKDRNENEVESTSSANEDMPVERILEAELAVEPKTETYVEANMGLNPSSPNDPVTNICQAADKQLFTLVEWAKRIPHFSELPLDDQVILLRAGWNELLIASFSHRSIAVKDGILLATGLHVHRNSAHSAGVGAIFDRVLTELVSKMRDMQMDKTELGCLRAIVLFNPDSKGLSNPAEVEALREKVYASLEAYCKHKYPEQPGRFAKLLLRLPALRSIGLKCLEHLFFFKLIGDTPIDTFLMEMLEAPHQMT
Experimental: (§1) CV-1 African Green Monkey cells were grown in Dulbecco's Modified Eagle's medium supplemented with 10% resin-charcoal stripped fetal bovine serum (FBS), 50 U/ml penicillin G and 50 μg/ml streptomycin sulfate (DMEM-FBS) at 37° C. in 5% CO2. One day prior to transfection, cells were plated to 50-80% confluence using phenol red-free DMEM-FBS. Cells were transiently transfected by lipofection as described in Forman et al., 81 Cell 687 (1995). Liposomes (N-[1-(2,3-dioleoyloxy)propyl]-N,N,N-ammonium methyl sulfate, sold by Boehringer Mannheim under the name DOTAP) were formed according to the manufacturer's instructions. The liposomes contained reporter gene constructs (300 ng/10^5 cells); cytomegalovirus driven expression vectors (25 ng/10^5 cells) were added as indicated along with CMX-Bgal (500 ng/10^5 cells) as an internal control. After 2 hours the liposomes were removed and replaced with fresh media. Cells were incubated for approximately 40 hours with phenol red-free DMEM-FBS containing the indicated compounds. After exposure to the specified ligand, the cells were harvested.
(§2) The harvested cells were assayed for the presence of luciferase activity. Cells were lysed in 0.1 M KPO4 (pH 7.8), 1.0% TRITON® X-100, 1.0 mM dithiolthreitol (DTT) and 2 mM ethylenediamine tetracetic acid (EDTA). Luciferase activity was measured by reaction of the cell lysates with luciferin in a reaction buffer comprising: 20 mM tricine, 1.07 mM Mg(CO3)4-Mg(OH)2-5H2O, 2.67 mM MgSO4.7H2O, 0.1 mM EDTA, 0.5 mM Sodium luciferin, 0.15 mg/ml Coenzyme A, 5 mM DTT, and 0.5 mM adenosine triphosphate (ATP). Resulting chemiluminescence was measured in a luminometer. […] All points were assayed in triplicate and varied by less than 15%. Each experiment was repeated three or more times with similar results.
(§3) As shown below, in most cases hRXRop was recombinantly coexpressed with one other of the indicated receptor constructs, so as to permit the formation of hetero-or homodimers containing hRXRop.
(§4) Expression of the luciferase reporter gene product was detected and quantified as described above.

[1] = test system: human AR, mouse PXR, human PXR, ERα, human LXRα, mouse PPARα, mouse PPARγ, mouse PPARδ, human VDR, human TRB, mouse CARβ; experiment: Repression of cognate ligand-induced activity of other nuclear receptor/RXR heterodimers (luciferase reporter); assay type: cell-based; conditions: 1 mM AGN 34 with cognate ligand
Experimental: Resulting chemiluminescence was measured in a luminometer.
Various other nuclear receptor/RXR heterodimers were incubated with the cognate ligand of the non-RXR component of the heterodimer. These were: human AR (androgen receptor), mouse PXR (10 μM pregnenolone-16-carbonitrile), human PXR (10 μM rifampicin), ERα (100 nM 17β-estradiol), human LXRα (30 μM hyodeoxycholic acid methyl ester), mouse PPARα (5 μM Wy 14,643), mouse PPARγ (1 μM rosiglitazone), mouse PPARδ (1 μM carbaprostacyclin), human VDR (100 nM 1,25-dihydroxyvitamin D3) and human TRB (100 nM triiodothyronine). No ligand was added to mouse CARβ which is constitutively active. Each compound was incubated in the presence or absence of 1 mM AGN 34, then assayed for luciferase reporter activity.

RFXRop / HRXRop = target: T2, RFXRop / HRXRop (UniProt P19793+Q62735); experiment: Co-transfection luciferase assay, EcRE × 6 reporter, RFXRop + HRXRop;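 note: CV-1 monkey cells transiently transfected with receptor expression vectors, reporter construct and β-galactosidase internal control, exposed to compound about 40 h, then luciferase chemiluminescence read by luminometer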
T2 sequence (Q62735 1-469): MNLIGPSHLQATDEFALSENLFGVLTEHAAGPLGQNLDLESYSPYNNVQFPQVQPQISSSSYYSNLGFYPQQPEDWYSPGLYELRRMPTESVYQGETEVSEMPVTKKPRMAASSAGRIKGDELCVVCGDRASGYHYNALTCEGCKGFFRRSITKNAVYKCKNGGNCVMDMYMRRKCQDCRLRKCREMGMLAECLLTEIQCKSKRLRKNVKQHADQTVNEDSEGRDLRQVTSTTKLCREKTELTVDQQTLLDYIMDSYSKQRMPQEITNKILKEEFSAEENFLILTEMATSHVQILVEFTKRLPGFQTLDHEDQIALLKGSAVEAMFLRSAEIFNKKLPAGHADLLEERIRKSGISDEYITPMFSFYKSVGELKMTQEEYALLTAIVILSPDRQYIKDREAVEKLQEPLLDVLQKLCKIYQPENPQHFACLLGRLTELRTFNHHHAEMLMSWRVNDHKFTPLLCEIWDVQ
T2 sequence (P19793 1-462): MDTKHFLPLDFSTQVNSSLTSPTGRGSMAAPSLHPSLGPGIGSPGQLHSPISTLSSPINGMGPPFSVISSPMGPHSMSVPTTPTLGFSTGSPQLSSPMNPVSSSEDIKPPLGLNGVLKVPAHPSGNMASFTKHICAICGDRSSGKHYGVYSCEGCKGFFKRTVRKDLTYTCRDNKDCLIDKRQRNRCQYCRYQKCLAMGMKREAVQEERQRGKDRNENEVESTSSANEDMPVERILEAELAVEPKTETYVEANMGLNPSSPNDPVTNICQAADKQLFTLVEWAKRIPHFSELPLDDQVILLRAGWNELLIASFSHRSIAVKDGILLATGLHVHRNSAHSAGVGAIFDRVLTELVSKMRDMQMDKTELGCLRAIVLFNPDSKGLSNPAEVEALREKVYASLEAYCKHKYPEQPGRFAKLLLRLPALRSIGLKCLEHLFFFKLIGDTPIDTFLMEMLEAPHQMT
Experimental: as §1, §2, §3, §4

In the case of CCCCCCOc1c(\C(C)=C/C=C/C(C)=C/C(=O)O)cc(C(C)C)cc1C(C)C [AGN 34, (2E, 4E, 6Z)-7-(2-Hexyloxy-3,5-diisopropylphenyl)-3-methylocta-2,4,6-trienoic Acid], the “Fold Activation” value (GAL-L-hRXRa; 0.1 μM LG268 + 0.01 μM AGN 34) is reported as 33.56 fold, the “Reporter Activity” value (GAL-L-hRXRa; 0.1 μM LG268 + 0.01 μM AGN 34) is reported as 11.17 and the “Fold Activation” value (GAL-L-hRXRa; 0.1 μM LG268 + 0.1 μM AGN 34) is reported as 8.61 fold. The “Reporter Activity” value (GAL-L-hRXRa; 0.1 μM LG268 + 0.1 μM AGN 34) was 2.86, the “Fold Activation” value (GAL-L-hRXRa; 0.1 μM LG268 + 1 μM AGN 34) was 1.07 fold and the “Reporter Activity” value (GAL-L-hRXRa; 0.1 μM LG268 + 1 μM AGN 34) was 0.36. The “Fold Activation” value (GAL-L-hRXRa; 0.1 μM LG268 + 3 μM AGN 34) was 1.05 fold, the “Reporter Activity” value (GAL-L-hRXRa; 0.1 μM LG268 + 3 μM AGN 34) was 0.35 and the “Fold Activation” value (GAL-L-hRXRa; 0.1 μM LG268 + 10 μM AGN 34) was 0.98 fold. The “Reporter Activity” value (GAL-L-hRXRa; 0.1 μM LG268 + 10 μM AGN 34) was 0.33, the “Fold Activation” value (GAL-L-hRXRa; 10 μM AGN 34 alone) was 1.14 fold and 1.12 fold and the “Reporter Activity” value (GAL-L-hRXRa; 10 μM AGN 34 alone) was 0.38 and 0.37. For the same molecule, the “Fold Activation” value (GAL-L-hRXRa; 50 μM CDCA + 0.01 μM AGN 34) was 1.03 fold, the “Reporter Activity” value (GAL-L-hRXRa; 50 μM CDCA + 0.01 μM AGN 34) was 0.34 and the “Fold Activation” value (GAL-L-hRXRa; 50 μM CDCA + 0.1 μM AGN 34) was 0.92 fold. The “Reporter Activity” value (GAL-L-hRXRa; 50 μM CDCA + 0.1 μM AGN 34) was 0.31, the “Reporter Activity” value (GAL-L-hRXRa; 50 μM CDCA + 1 μM AGN 34) was 0.37 and the “Fold Activation” value (GAL-L-hRXRa; 50 μM CDCA + 3 μM AGN 34) was 1.05 fold. The “Reporter Activity” value (GAL-L-hRXRa; 50 μM CDCA + 3 μM AGN 34) was 0.35, the “Fold Activation” value (GAL-L-hRXRa; 50 μM CDCA + 10 μM AGN 34) was 1.10 fold and the “Reporter Activity” value (GAL-L-hRXRa; 50 μM CDCA + 10 μM AGN 34) was 0.37. The “repression of specific ligand-induced activity of other nuclear receptors” value [1] was “unable to repress”, the “Fold Activation” value (RFXRop / HRXRop; 0.1 μM LG268 + 0.01 μM AGN 34) was 18.59 fold and the “Reporter Activity” value (RFXRop / HRXRop; 0.1 μM LG268 + 0.01 μM AGN 34) was 5.24. For the same molecule, the “Fold Activation” value (RFXRop / HRXRop; 0.1 μM LG268 + 0.1 μM AGN 34) was 1.55 fold, the “Reporter Activity” value (RFXRop / HRXRop; 0.1 μM LG268 + 0.1 μM AGN 34) was 0.44 and the “Fold Activation” value (RFXRop / HRXRop; 0.1 μM LG268 + 1 μM AGN 34) was 0.88 fold. The “Reporter Activity” value (RFXRop / HRXRop; 0.1 μM LG268 + 1 μM AGN 34) was 0.25, the “Fold Activation” value (RFXRop / HRXRop; 0.1 μM LG268 + 3 μM AGN 34) was 0.92 fold and the “Reporter Activity” value (RFXRop / HRXRop; 0.1 μM LG268 + 3 μM AGN 34) was 0.26. The “Fold Activation” value (RFXRop / HRXRop; 0.1 μM LG268 + 10 μM AGN 34) was 0.90 fold, the “Reporter Activity” value (RFXRop / HRXRop; 0.1 μM LG268 + 10 μM AGN 34) was 0.25 and the “Fold Activation” value (RFXRop / HRXRop; 10 μM AGN 34 alone) was 0.84 fold and 1.02 fold. The “Reporter Activity” value (RFXRop / HRXRop; 10 μM AGN 34 alone) was 0.27 and 0.29, the “Fold Activation” value (RFXRop / HRXRop; 50 μM CDCA + 0.01 μM AGN 34) was 9.03 fold and the “Reporter Activity” value (RFXRop / HRXRop; 50 μM CDCA + 0.01 μM AGN 34) was 2.92. The “Fold Activation” value (RFXRop / HRXRop; 50 μM CDCA + 0.1 μM AGN 34) was 6.32 fold, the “Reporter Activity” value (RFXRop / HRXRop; 50 μM CDCA + 0.1 μM AGN 34) was 2.05 and the “Fold Activation” value (RFXRop / HRXRop; 50 μM CDCA + 1 μM AGN 34) was 3.94 fold and 4.99 fold. For the same molecule, the “Reporter Activity” value (RFXRop / HRXRop; 50 μM CDCA + 1 μM AGN 34) was 1.28, the “Fold Activation” value (RFXRop / HRXRop; 50 μM CDCA + 3 μM AGN 34) was 3.04 fold and the “Reporter Activity” value (RFXRop / HRXRop; 50 μM CDCA + 3 μM AGN 34) was 0.98. For the same molecule, the “Fold Activation” value (RFXRop / HRXRop; 50 μM CDCA + 10 μM AGN 34) was 3.94 fold and the “Reporter Activity” value (RFXRop / HRXRop; 50 μM CDCA + 10 μM AGN 34) was 1.28.
